The values that follow come from patent US4358461A, “Antiallergic agent” (Takeda Chemical Industries, Ltd., priority 1980, dated 1982).

For the assay, the system named is SRS-A. Kind of assay: Inhibitory action on the generation and release of SRS-A (sensitized guinea pig lung fragment; method of Orange and Moore, SRS-A assayed by method of Brocklehurst). The settings on record: egg albumin antigen. In kind it is cell-based, guinea pig (Hartley strain). An excerpt:
The action of the antiallergic agent of this invention to inhibit the production of SRS-A was investigated by the method of Orange and Moore [J. Immunol.

As to baicalein phosphate disodium [BPS], the “Inhibitory action (percent inhibition of generation and release of SRS-A due to antigen-antibody interaction)” value is, setting by setting: (concentration 10 (so in the source)) 18.7 ± 6.6%; (concentration 100 (so in the source)) 50.8 ± 10.7%.
